In patent US20240238248A1, “PHARMACEUTICAL COMPOSITION FOR USE IN TREATING CEREBRAL INFARCTION” (Ji Xing Pharmaceuticals Hong Kong Limited, priority 2021, published 2024):
Where two headings read alike, the source gives them in different places.

How the values were obtained:
[1] = Toxicity test by two-week repeated administration to rats; conditions: both sexes, rat, in vivo, intravenous over 30 minutes once daily for two weeks, 2.4, 12 and 60 mg/kg
Experimental: (§1) Rats (12 males and 12 females) under neither anesthesia nor unrestrained condition were repeatedly and intravenously given TMS-007 (preparation of a sodium-salt thereof) at a dose of 2.4, 12 and 60 mg/kg (continuously over 30 minutes) once daily for two weeks. The day after completion of repeated administration, the rats were subjected to autopsy. As a result, NOAEL of the toxicity test of rats by repeated administration was determined to be 60 mg/kg or more.

[2] = Toxicity test by two-week repeated administration to cynomolgus monkeys; conditions: both sexes, cynomolgus monkey, in vivo, male and female, intravenous over 30 minutes once daily for two weeks, 3, 10 and 30 mg/kg
Experimental: (§2) Cynomolgus monkey (3 males per group and 3 females per group) under neither anesthesia nor unrestrained condition were repeatedly and intravenously given TMS-007 (preparation of a sodium-salt thereof) at a dose of 3, 10 and 30 mg/kg (continuously over 30 minutes) once daily for two weeks. The day after completion of repeated administration, the monkeys were subjected to autopsy. As a result, NOAEL of the toxicity test of cynomolgus monkeys by repeated administration was determined to be 10 mg/kg or more in both male and female groups.

[3] = Phase I test for healthy persons: pharmacokinetics; format: in vivo, human; conditions: for Cmax / AUC(0-t): iv; for AUC(0-t): read-out: AUC0-24 (converted)
Experimental: (§3) Phase I test (placebo-control randomized double-blind test) for healthy adult males was carried out. Five cohorts each was constituted of 8 persons (active drug was administered to 6 person and a placebo was administered to 2 person) were used in the test. TMS-007 (SMTP-7 sodium salt preparation) or a placebo was administered intravenously once at a dose of 0.05, 0.25, 1, 3, and 6 mg/kg (equivalent) over 31 minutes (bolus over 1 minute+continuous administration over 30 minutes). The subjects determined to be eligible by a screening test were hospitalized the day before administration. Day 3 from completion of administration, the subjects were allow to leave the hospital. Day 7 from completion of administration, post (follow-up) examination was carried out for safety, tolerance and PK in the period up to Day 7.

healthy adult males = test: Phase I test for healthy persons: safety and tolerance; format: in vivo, human
Experimental: as §3

[4] = Plasma pharmacokinetics in rats (repeated-dose study); format: in vivo; conditions: rat, iv, male rats, 12 mg/kg-dose group, initial day of repeated-dose study, average
Experimental: as §1
(§4) Cmax and AUC0-24 values when TMS-007 was administered to rats and monkeys were as follows.

[5] = Plasma pharmacokinetics in monkeys (extended single-dose and repeated-dose study); format: in vivo; conditions: monkey, iv, male monkeys, 10 mg/kg-dose group, extended single-dose study and repeated-dose study (first day), average
Experimental: as §2, §4

mice, rats and monkeys = test: Pharmacological tests using mice, rats and monkeys; format: in vivo; conditions: dose of 1 to 10 mg/kg
Experimental: as §4

[6] = tested on: cerebral infarction patients; test: Phase II single dose study for cerebral infarction patients: safety; format: in vivo
Experimental: (§5) Randomized, double blind, placebo control, single dose, intravenous administration, parallel between groups and dose escalation regimen
(§6) Cerebral infarction patients within 12 hours from onset are used as subjects. Test subjects (90 patients: first cohort: 9, second cohort: 27, third cohort: 54) are determined in accordance with the following selection criteria and exclusion criteria.
To patients with acute cerebral infarction within 12 hours after onset, TMS-007 (SMTP-7 sodium salt preparation)) or a placebo were administered intravenously once (bolus over 1 minute+continuous injection over 30 minutes).
The frequency of occurrence of symptomatic intracranial hemorrhage with NIHSS score worsening of 4 or more points up to 24 hours after administration of TMS-007

[7] = tested on: cerebral infarction patients; test: Phase II single dose study: mRS on Day 90 after administration; format: in vivo, human; conditions: for Odds ratio, rate of obtaining outcome of mRS0-2: Day 90 after administration
Experimental: as §5, §6
(§7) To patients with acute cerebral infarction within 12 hours after onset, TMS-007 (SMTP-7 sodium salt preparation)) or a placebo were administered intravenously once (bolus over 1 minute+continuous injection over 30 minutes). The ratio of number of patients to which an active drug (TMS-007 sodium salt preparation) is to be administered relative to the number of patients to which a placebo is to be administered is set at 2:1 in the first and second cohorts and 1:1 in the third cohort as shown in Table 1 below.
(§8) • Safety (e.g., extracranial hemorrhage, major hemorrhage) up to Day 7 after administration • Symptomatic intracranial hemorrhage and non-symptomatic intracranial hemorrhage within 24 hours after administration • Value of mRS on Day 90 after administration • A rate of recanalization observed in an MRA image of 24 hours after administration • PK (concentration of unchanged form of TMS-007, Cmax, AUC) when TMS-007 was administered
In the FAS group, to mRS evaluation of individual dose groups (mRS 0-1 is assigned 1, mRS 2-6 is assigned 0) Day 90 after administration (Day 90), a logistic model using response, dose groups (TMS-007-combined group and placebo group), mRS on the base line, NIHSS score, age, blood pressure (systolic blood pressure) as explanatory variables was applied, odds ratio and 95% confidence interval of the TMS-007-combined group relative to the placebo group were estimated. The same estimation was carried out by using TMS-007 dose groups as the dose groups relative to the placebo group. More specifically, the odds ratios of individual TMS-007 dose groups relative to the placebo group and 95% confidence interval were estimated.

[8] = tested on: cerebral infarction patients observed to have occlusion; test: Phase II single dose study: recanalization rate evaluated by MRA; format: in vivo, human; conditions: TMS-007 administration group vs placebo group
Experimental: as §7, §8
The recanalization rate was evaluated by MRA. Patients (39 cases) observed to have occlusion at the time of enrollment and observed to be “canalized” or “partially canalized” on Day 2 were evaluated as recanalization cases. The ratio of the recanalization cases was 14/[…] cases (58.3%) in the TMS-007 administration groups and 4/15 cases (26.7%) in the placebo group. […]

[9] = Phase II single dose study: pharmacokinetics (plasma TMS-007 concentration); format: in vivo, human; conditions: for concentration at 31 min / concentration at 2 h: human, plasma, intravenous, patients, read-out: plasma TMS-007 concentration (mean±standard deviation); for concentration at 31 min: 31 minutes after administration; for concentration at 2 h: 2 hours after the administration
Experimental: as §7, §8
In the PK analysis set, the dose groups except the placebo group were subjected to counting/analysis. The plasma TMS-007 concentrations (original scale value, mean±standard deviation) of the TMS-007 (1, 3, 6 mg/kg) groups (hereinafter described in the same order) 31 minutes after administration of a study drug were 7.294±1.472, 29.28±8.425 and 52.19±12.76 μg/mL, respectively; the plasma TMS-007 concentrations 2 hours after the administration were 0.1379±0.09777, 0.8970±0.5752 and 3.033±2.924 μg/mL, respectively. With respect to the plasma concentration value (logarithmic conversion value) of a study drug 31 minutes after initiation of administration, difference between doses was evaluated by one-way ANOVA using a dose as a factor. As a result, p value was less than 0.0001 and difference was statistically significant
When the dose proportionality of plasma TMS-007 concentration of the investigational new drug 31 minutes after initiation of administration, was evaluated, a point estimation value (two-sided 95% confidence interval) of slope (b) of a regression equation of power model was 1.042 (0.895-1.189). From this, linearity of TMS-007 in the dose range of 1 to 6 mg/kg was confirmed (see, FIG. 11).

[10] = male, human, blood, 0.05 mg/kg single i.v. over 31 minutes
[11] = male, human, blood, 0.25 mg/kg single i.v. over 31 minutes
[12] = male, human, blood, 1 mg/kg single i.v. over 31 minutes
[13] = male, human, blood, 3 mg/kg single i.v. over 31 minutes
[14] = male, human, blood, 6 mg/kg single i.v. over 31 minutes
[15] = TMS-007 combined group to placebo group, Day 90, FAS

CC(C)=CCC/C(C)=C/CC[C@]1(C)Oc2c(c(O)cc3c2CN(CCC[C@@H](C(=O)O)N2Cc4c(cc(O)c5c4O[C@@](C)(CC/C=C(\C)CCC=C(C)C)[C@@H](O)C5)C2=O)C3=O)C[C@@H]1O [TMS-007, (S)-2,5-bis((2S,3S)-2-((E)-4,8-dimethylnona-3,7-dien-1-yl)-3,5-dihydroxy-2-methyl-7-oxo-3,4,7,9-tetrahydropyrano[2,3-e]isoindol-8(2H)-yl)pentanoic acid]
NOAEL at 2 weeks [1]: ≥ 60 mg/kg
NOAEL at 2 weeks [2]: ≥ 10 mg/kg
Unchanged form of TMS-007 in urine ([3]; any one of the cohorts): not observed
time of peak blood concentration ([3]; immediately after completion of administration, all cohorts): 31 min
half-life ([3]; male, human, blood, intravenous, regardless of the dose (0.05-6 mg/kg), read-out: half-lives in blood): 10 to 15 min
Cmax [3, 10]: 346 ng/mL
AUC(0-t) [3, 10]: 252 ng·h/mL
Cmax [3, 11]: 1860 ± 150 ng/mL
AUC(0-t) [3, 11]: 1380 ng·h/mL
Cmax [3, 12]: 6700 ng/mL
AUC(0-t) [3, 12]: 5020 ng·h/mL
Cmax [3, 13]: 20300 ng/mL
AUC(0-t) [3, 13]: 16000 ng·h/mL
Cmax [3, 14]: 49900 ± 5200 ng/mL
AUC(0-t) [3, 14]: 38800 ng·h/mL
Adverse events observed (healthy adult males; single i.v. 0.05-6 mg/kg): all non-serious/mild/restorability
indication of hemorrhagic risk (healthy adult males; single i.v. dose-escalation trial): not observed
Cmax [4]: 20200 ng/mL
AUC(0-t) ([4]; read-out: AUC0-24 (converted)): 25700 ng·h/mL
Cmax [5]: 45800 to 58600 ng/mL
AUC(0-t) ([5]; read-out: AUC0-24): 32200 to 40200 ng·h/mL
medicinal effects (mice, rats and monkeys): reduction of the area of infarction and improvement of neurological symptoms
occurrence of major hemorrhage ([6]; human, in vivo): not observed
symptomatic intracranial hemorrhage ([6]; human, in vivo): not observed
frequencies of adverse event, serious adverse event, side effect, serious side effect, adverse event leading to discontinuation vs placebo (Fisher's exact test) ([6]; individual TMS-007 groups and combined group, up to Day 90): not statistically significant
symptomatic intracranial hemorrhage with NIHSS score worsening of 4 or more points ([6]; up to 24 hours after administration, safety analysis set, TMS-007 groups (1, 3, 6 mg/kg)): not observed
Estimated value (logistic model, dose group) for mRS 0-1 ([7]; 1 mg/kg to placebo group, Day 90, FAS): −2.425
Odds ratio, rate of obtaining outcome of mRS0-2 ([7]; 1 mg/kg): 0.292
Estimated value (logistic model, dose group) for mRS 0-1 ([7]; 3 mg/kg to placebo group, Day 90, FAS): −0.726
Odds ratio, rate of obtaining outcome of mRS0-2 ([7]; 3 mg/kg): 0.585
Estimated value (logistic model, dose group) for mRS 0-1 ([7]; 6 mg/kg to placebo group, Day 90, FAS): −1.207
Odds ratio, rate of obtaining outcome of mRS0-2 ([7]; 6 mg/kg): 0.506
Estimated value (logistic model, dose group) for mRS 0-1 [7, 15]: −1.206
Odds ratio of mRS (mRS 0 and 1 assigned 1, mRS 2-6 assigned 0) [7, 15]: 0.299
Odds ratio, rate of obtaining outcome of mRS0-2 ([7]; TMS-007 combined group): 0.500
odds ratio of recanalization [8]: 4.23
concentration at 31 min ([9]; 1 mg/kg): 7290 ± 1470 ng/mL
concentration at 2 h ([9]; 1 mg/kg): 138 ± 97.8 ng/mL
concentration at 31 min ([9]; 3 mg/kg): 29300 ± 8420 ng/mL
concentration at 2 h ([9]; 3 mg/kg): 897 ± 575 ng/mL
concentration at 31 min ([9]; 6 mg/kg): 52200 ± 12800 ng/mL
concentration at 2 h ([9]; 6 mg/kg): 3030 ± 2920 ng/mL
slope (b) of regression equation of power model, dose proportionality (two-sided 95% confidence interval) ([9]; plasma concentration 31 minutes after initiation of administration, 1 to 6 mg/kg): 1.042 (0.895-1.189)
